Patent US20240366612A1, “COMPOUNDS AND METHODS FOR MODULATING NUCLEIC ACID SPLICING” (REMIX THERAPEUTICS INC., priority 2021, published 2024)
Counter-ions that a name gives are not always drawn.

Legend:
HTT mRNA = test: Splicing RT-qPCR assay, HTT canonical (CJ) and alternative (AJ) junction mRNA; format: cell-based; details: Homo sapiens, A673 or K562 cells, 24 hours treatment; for IC50: decrease in CJ mRNA; for AC50: increase in AJ mRNA
Method in brief: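 Compound-treated A673 or K562 cells (11-point 3-fold dilution, top dose 10 uM final, DMSO ≤0.25%) were incubated for 24 h at 37° C. Lysates underwent one-step RT-qPCR for canonical and alternative-exon junction isoforms. Normalization used PPIA for A673 and GAPDH or GUSB for K562.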

MYB CJ mRNA = test: Gene panel canonical junction qPCR assay, MYB; format: cell-based; details: Homo sapiens, larger gene panel, read-out: MYB IC50 (decrease in CJ mRNA levels)
Method in brief: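 A673 or K562 cells treated 24 h with 11-point 3-fold dilutions (top 10 µM, ≤0.25% DMSO) at 37 °C. Canonical exon-junction mRNA measured by probe-based RT-qPCR, normalized to GAPDH, GUSB or PPIA and DMSO (2^−ΔΔCt), converted to percent response over a fixed ΔCt window; IC50 from 4-parameter fit.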

Row | Structure (SMILES) | IC50 (HTT mRNA) [nM] | IC50 (MYB CJ mRNA) [nM] | AC50 (HTT mRNA) [nM]
1 | Cc1cn2nc(-c3cc4ncn(C5CCN(C)CC5)c(=O)c4s3)cc(C)c2n1 [Compound 239, 6-(2,8-dimethylimidazo[1,2-b]pyridazin-6-yl)-3-(1-methylpiperidin-4-yl)thieno[3,2-d]pyrimidin-4(3H)-one] | 1000 to 10000 | 1000 to 10000 | 1000 to 10000
2 | Cc1cn2cc(-c3nc4sc(C5CCNCC5)cc4c(=O)[nH]3)cc(F)c2n1 [Compound 250, 2-(8-fluoro-2-methylimidazo[1,2-a]pyridin-6-yl)-6-(piperidin-4-yl)thieno[2,3-d]pyrimidin-4(3H)-one] | 100 to 1000 | 100 to 1000 | 100 to 1000
3 | Cc1nc(-c2nc3ncn(C4CCNCC4)c(=O)c3s2)cc2cn(C)nc12 [Compound 251, 2-(2,7-dimethyl-2H-pyrazolo[3,4-c]pyridin-5-yl)-6-(piperidin-4-yl)thiazolo[4,5-d]pyrimidin-7(6H)-one] | 1000 to 10000 | 1000 to 10000 | 1000 to 10000
4 | Cn1cc2cc(-c3nc4ncn(C5CCNCC5)c(=O)c4s3)c(O)cc2n1 [Compound 253, 2-(6-hydroxy-2-methyl-2H-indazol-5-yl)-6-(piperidin-4-yl)thiazolo[4,5-d]pyrimidin-7(6H)-one, hydrochloride] | 1000 to 10000 | 1000 to 10000 | 1000 to 10000
5 | Cc1cn2cc(-c3nc4sc(C5CCN(C)CC5)cc4c(=O)[nH]3)cc(F)c2n1 [Compound 256, 2-(8-fluoro-2-methylimidazo[1,2-a]pyridin-6-yl)-6-(1-methylpiperidin-4-yl)thieno[2,3-d]pyrimidin-4(3H)-one] | > 10000 | > 10000 | > 10000
6 | Cn1cc2cc(-c3cc4ncn(C5CCNCC5)c(=O)c4s3)cc(F)c2n1 [Compound 257] | 1000 to 10000 | 1000 to 10000 | 1000 to 10000
7 | Cn1cc2cc(-c3cc4ncn(C5CCNCC5)c(=O)c4s3)c(F)cc2n1 [Compound 258] | 100 to 1000 | 100 to 1000 | 100 to 1000
8 | Cn1cc2cc(-c3cc4ncn(C5CCNCC5)c(=O)c4s3)cc(C#N)c2n1 [Compound 259] | 1000 to 10000 | 100 to 1000 | 1000 to 10000
9 | COc1cc(-c2cc3ncn(C4CCNCC4)c(=O)c3s2)cnn1 [Compound 260] | 1000 to 10000 | 1000 to 10000 | 1000 to 10000
10 | Cc1cn2cc(-c3cc4ncn(C5CCNCC5)c(=O)c4s3)cc(C)c2n1 [Compound 261] | 100 to 1000 | 100 to 1000 | 1000 to 10000

The next lines start with results.

Row | IC50 (HTT mRNA) [nM] | IC50 (MYB CJ mRNA) [nM] | Structure (SMILES) | AC50 (HTT mRNA) [nM]
11 | 100 to 1000 | 100 to 1000 | Cc1cn2nc(-c3cc4ncn(C5CCNCC5)c(=O)c4s3)cc2c(C)n1 [Compound 262] | 100 to 1000
12 | 1000 to 10000 | 1000 to 10000 | COc1cc(-c2cc3ncn(C4CCNCC4)c(=O)c3s2)ccn1 [Compound 263] | 1000 to 10000
13 | 1000 to 10000 | 1000 to 10000 | Cc1cn2cc(-c3cc4ncn(C5CCNCC5)c(=O)c4s3)ncc2n1 [Compound 264] | 1000 to 10000
14 | 100 to 1000 | 100 to 1000 | Cc1cn2cc(-c3cc4ncn(C5CCN(C)CC5)c(=O)c4s3)cc(F)c2n1 [Compound 265, 6-{8-fluoro-2-methylimidazo[1,2-a]pyridin-6-yl}-3-(1-methylpiperidin-4-yl)thieno[3,2-d]pyrimidin-4-one] | 100 to 1000
15 | 100 to 1000 | 100 to 1000 | Cc1cn2nc(-c3nc4sc(N5CCNCC5)nc4c(=O)[nH]3)cc2c(C)n1 [Compound 267] | 100 to 1000
16 | > 10000 | > 10000 | Cc1cn2nc(-c3nc4sc(N5CCN(C)CC5)nc4c(=O)[nH]3)cc2c(C)n1 [Compound 268] | > 10000
17 | 100 to 1000 | 100 to 1000 | Cc1cn2cc(-c3cc4ncn(N5CCNCC5)c(=O)c4s3)cc(F)c2n1 [Compound 269, 6-{8-fluoro-2-methylimidazo[1,2-a]pyridin-6-yl}-3-(piperazin-1-yl)thieno[3,2-d]pyrimidin-4-one] | 100 to 1000
